Assays:
Assay type in all cases: cell-based
[1] = MTT cytotoxicity assay, U-937; conditions: Homo sapiens, U-937, U937, MTT;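 note: Six-dose MTT colorimetric assay on cell monolayers, formazan absorbance read at 560 nm with 620 nm background removed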
Procedure: (§6) Using a six-dose MTT colorimetric assay [44, 66], all new synthetic compounds were tested for cytotoxicity against three cancer cell lines: MDA-MB-231 breast cancer cells, HT-29 colorectal adenocarcinoma cells, and U-937 renal cancer cells. […] These cell lines were supplied by ATCC (American Type Culture Collection) via the Holding company for biological products and vaccines (VACSERA, Cairo, Egypt). The reference control used was Methotrexate.
(§7) Using a six-dose MTT colorimetric assay [44, 66], allnew synthetic compounds were tested for cytotoxicity against three cancer cell lines: MDA-MB-231 breast cancer cells,HT-29 colorectal adenocarcinoma cells, and U-937 renal
(§8) The cell lines were supplied by ATCC (American Type Culture Collection). The reference control used was Methotrexate. The cytotoxic activities of the examined compounds were quantified by inoculating a 96-well tissue culture plate with 1 X 10^5 cells / mL (100 uL/well) and incubating it at 37°C for 24 hours to develop a complete monolayer sheet. After forming a confluent sheet of cells, the growth medium was decanted from 96-well microtiter plates, and the cell monolayer was washed twice with wash media. Two-fold dilutions of tested samples were made in RPMI medium with 2% serum (maintenance medium), and 0.1 mL of each dilution was tested in different wells, with three wells serving as controls and receiving only maintenance medium. Following that, the plate was incubated at 37°C and examined. Cells were investigated for any physical signs of toxicity, such as partial or complete monolayer loss, rounding, shrinkage, or cell granulation. MTT solution was prepared (5mg/ml in PBS) (BIO BASIC CANADA INC), and 20 uL MTT solution was added to each well. After 5 minutes on a shaking table at150 rpm to thoroughly mix the MTT into the media, it was incubated (37C, 5% CO2) for 4 hours to allow the MTT to be metabolized. Formazan (MTT metabolic product) was resuspended in 200 uL DMSO and shaken at 150 rpm for 5 minutes to thoroughly mix the formazan into the solvent. The optical density was measured at 560 nm, and the background was subtracted at 620 nm. Finally, the IC50 of the test compound in comparison to the reference was calculated using the GraphPad Prism software.

[2] = test system: U-937 renal cancer cells; assay: MTT cytotoxicity assay, U-937; conditions: MTT; for IC50: Homo sapiens, U-937, mean of three independent experiments ± SD, read-out: IC50 Value U-937; for Toxicity %: U937;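 for all read-outs here: Six-dose MTT colorimetric assay on cell monolayers, formazan absorbance read at 560 nm with 620 nm background removed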
Procedure: as §6, §7, §8

[3] = test system: HT-29 colorectal adenocarcinoma cells; assay: MTT cytotoxicity assay, HT-29; conditions: MTT; for Toxicity % / viability at 0.312 µM / viability at 0.625 µM / viability at 1.25 µM / viability at 2.5 µM / viability at 5 µM / viability at 10 µM: HT29; for viability at 0.312 µM / viability at 0.625 µM / viability at 1.25 µM / viability at 2.5 µM / viability at 5 µM / viability at 10 µM / IC50: Homo sapiens, HT-29; for IC50: mean of three independent experiments ± SD, read-out: IC50 Value HT-29
Procedure: (§1) All newly synthetic compounds were tested for cytotoxicity using a six-dose MTT colorimetric assay on three cancer cell lines; namely, breast cancer cells (MDA-MB-231), colorectal adenocarcinoma cells (HT-29) and renal cancer cells (U-937). […] However, renal cancer cells (U-937) were discovered to be the least sensitive.
(§2) Using a six-dose MTT colorimetric assay, all new synthetic compounds were tested for cytotoxicity against three cancer cell lines: MDA-MB-231 breast cancer cells, HT-29 colorectal adenocarcinoma cells, and U-937 renal cancer cells. […] These cell lines were supplied by ATCC (American Type Culture Collection) via the Holding company for biological products and vaccines (VACSERA, Cairo, Egypt). The reference control used was Methotrexate. Detailed descriptions of the MTT colorimetric assay’s protocol can be found in the Supplementary file.
(§3) 1.1.In-vitro cytotoxicity screening
(§4) Using a six-dose MTT colorimetric assay, allnew synthetic compounds were tested for cytotoxicity against three cancer cell lines: MDA-MB-231 breast cancer cells,HT-29 colorectal adenocarcinoma cells, and U-937 renal […]
(§5) The cell lines were supplied by ATCC (American Type Culture Collection). The reference control used was Methotrexate. The cytotoxic activities of the examined compounds were quantified by inoculating a 96-well tissue culture plate with 1 X 10^5 cells / mL (100 uL/well) and incubating it at 37°C for 24 hours to develop a complete monolayer sheet. After forming a confluent sheet of cells, the growth medium was decanted from 96-well microtiter plates, and the cell monolayer was washed twice with wash media. Two-fold dilutions of tested samples were made in RPMI medium with 2% serum (maintenance medium), and 0.1 mL of each dilution was tested in different wells, with three wells serving as controls and receiving only maintenance medium. Following that, the plate was incubated at 37°C and examined. Cells were investigated for any physical signs of toxicity, such as partial or complete monolayer loss, rounding, shrinkage, or cell granulation. MTT solution was prepared (5mg/ml in PBS) (BIO BASIC CANADA INC), and 20 uL MTT solution was added to each well. After 5 minutes on a shaking table at150 rpm to thoroughly mix the MTT into the media, it was incubated (37°C, 5% CO2) for 4 hours to allow the MTT to be metabolized. Formazan (MTT metabolic product) was resuspended in 200 uL DMSO and shaken at 150 rpm for 5 minutes to thoroughly mix the formazan into the solvent. The optical density was measured at 560 nm, and the background was subtracted at 620 nm. Finally, the IC50 of the test compound in comparison to the reference was calculated using the GraphPad Prism software. […]

[4] = test system: MDA-MB-231 breast cancer cells; assay: MTT cytotoxicity assay, MDA-MB-231; conditions: MDA-MB-231, MTT; for IC50 / viability at 0.312 µM / viability at 0.625 µM / viability at 1.25 µM / viability at 2.5 µM / viability at 5 µM / viability at 10 µM: Homo sapiens; for IC50: mean of three independent experiments ± SD, read-out: IC50 Value MDA-MB-231
Procedure: as §1, §2, §3, §4, §5

Compound	viability at 0.312 µM [1] [%]	viability at 0.625 µM [1] [%]	viability at 1.25 µM [1] [%]	viability at 2.5 µM [1] [%]	viability at 5 µM [1] [%]	viability at 10 µM [1] [%]	IC50 [2] [µM]	Toxicity % ([2]; 0.312 uM) [%]	Toxicity % ([2]; 0.625 uM) [%]	Toxicity % ([2]; 1.25 uM) [%]	Toxicity % ([2]; 2.5 uM) [%]	Toxicity % ([2]; 5 uM) [%]	Toxicity % ([2]; 10 uM) [%]	Toxicity % ([3]; 0.312 uM) [%]	Toxicity % ([3]; 0.625 uM) [%]	Toxicity % ([3]; 1.25 uM) [%]	Toxicity % ([3]; 2.5 uM) [%]	Toxicity % ([3]; 5 uM) [%]	Toxicity % ([3]; 10 uM) [%]	viability at 0.312 µM ([3]; 0.312 uM) [%]	other results
CCn1c(N)c(/N=C(/CBr)c2ccc([N+](=O)[O-])cc2)c(=O)[nH]c1=O [Compound 5a, (E)-6-Amino-5-((2-bromo-1-(4-nitrophenyl)ethylidene)amino)-1-ethylpyrimidine-2,4(1H,3H)-dione]	99.6	98.9	99.6	89.7	55.1	12.7	6.08 ± 0.11	0.4357	1.144	0.4357	10.29	44.93	87.31	0.1292	0.2584	5.556	50.3	83.29	97.46	99.9	viability at 0.625 µM ([3]; 0.625 uM): 99.7%; viability at 1.25 µM ([3]; 1.25 uM): 94.4%; viability at 2.5 µM ([3]; 2.5 uM): 49.7%; viability at 5 µM ([3]; 5 uM): 16.7%; viability at 10 µM ([3]; 10 uM): 2.54%; IC50 [3]: 3.09 ± 0.01 µM; IC50 [4]: 3.24 ± 0.03 µM; viability at 0.312 µM ([4]; 0.312 uM): 99.7%; viability at 0.625 µM ([4]; 0.625 uM): 99.6%; viability at 1.25 µM ([4]; 1.25 uM): 91.2%; viability at 2.5 µM ([4]; 2.5 uM): 53%; viability at 5 µM ([4]; 5 uM): 23.8%; viability at 10 µM ([4]; 10 uM): 4.21%; Toxicity % ([4]; 0.312 uM): 0.266%; Toxicity % ([4]; 0.625 uM): 0.4433%; Toxicity % ([4]; 1.25 uM): 8.821%; Toxicity % ([4]; 2.5 uM): 46.99%; Toxicity % ([4]; 5 uM): 76.2%; Toxicity % ([4]; 10 uM): 95.79%
Nc1c(/N=C(/CBr)c2ccc([N+](=O)[O-])cc2)c(=O)[nH]c(=O)n1Cc1ccccc1 [Compound 5b, (E)-6-Amino-1-benzyl-5-((2-bromo-1-(4-nitrophenyl)ethylidene)amino)pyrimidine-2,4(1H,3H)-dione]	99.9	99.9	99.6	99.1	50.3	16.3	6.29 ± 0.26	0.05447	0.1089	0.3813	0.8715	49.73	83.71	0	0.1292	6.891	27.39	74.68	88.24	100	viability at 0.625 µM ([3]; 0.625 uM): 99.9%; viability at 1.25 µM ([3]; 1.25 uM): 93.1%; viability at 2.5 µM ([3]; 2.5 uM): 72.6%; viability at 5 µM ([3]; 5 uM): 25.3%; viability at 10 µM ([3]; 10 uM): 11.8%; IC50 [3]: 3.66 ± 0.05 µM; IC50 [4]: 2.37 ± 0.06 µM; viability at 0.312 µM ([4]; 0.312 uM): 99.4%; viability at 0.625 µM ([4]; 0.625 uM): 99.4%; viability at 1.25 µM ([4]; 1.25 uM): 84.7%; viability at 2.5 µM ([4]; 2.5 uM): 45.8%; viability at 5 µM ([4]; 5 uM): 23.2%; viability at 10 µM ([4]; 10 uM): 8.07%; Toxicity % ([4]; 0.312 uM): 0.6206%; Toxicity % ([4]; 0.625 uM): 0.5762%; Toxicity % ([4]; 1.25 uM): 15.34%; Toxicity % ([4]; 2.5 uM): 54.21%; Toxicity % ([4]; 5 uM): 76.77%; Toxicity % ([4]; 10 uM): 91.93%

— paper PMC10535864, “Novel Aminopyrimidine-2,4-diones, 2-Thiopyrimidine-4-ones, and 6-Arylpteridines as Dual-Target Inhibitors of BRD4/PLK1: Design, Synthesis, Cytotoxicity, and Computational Studies” (Pharmaceuticals, 2023)
